In patent US20240010681A1, “PEPTIDES AND METHODS OF USE” (REALTA LIFE SCIENCES, INC., priority 2020, published 2024):

Columns and labels:
[1] = system: inflammatory cytokines and chemokines; assay: Plasma cytokine and chemokine levels by xMAP bead-based immunoassay in two-hit ALI rat model; format: in vivo
two-hit ALI model = assay: Lung histology (H&E) and ImageJ lung injury score in two-hit ALI rat model; format: in vivo
Procedure: The inventors' previously developed two-hit ALI model is initiated by infusion of LPS (first hit) into Wistar rats followed 30 minutes later with transfusion of 30% incompatible erythrocytes (second hit) and sacrifice of the animals 4 hours later. […] Lungs were isolated from animals four hours after the second hit and tissues evaluated by H&E staining.
To determine the level of lung tissue protection by RLS-0071 in this model, grading of H&E sections for cell wall thickening for the different treatment groups was performed. Images of randomized microscopy fields were converted to black and white and quantified by ImageJ (NIH) analysis. The ratio of black to white pixels was then determined as a measure of lung damage: as lung damage increased, the alveolar walls thickened, shrinking the alveolar space (white space), resulting in a decrease in white pixels and increase in black pixels.

[2] = system: classical complement pathway mediated hemolysis; assay: Free hemoglobin in plasma (intravascular hemolysis), two-hit ALI rat model; format: in vivo; settings: 10 mg/kg IV; compared with saline treatment
Procedure: Complement inhibition in the bloodstream of rats in the 2-hit ALI model was measured by two different methods. The first method measured free hemoglobin in the plasma of the rats over time, by measuring intravascular hemolysis of the transfused incompatible erythrocytes.

mCH50 = mCH50 ex vivo on plasma of two-hit ALI rats; format: in vivo, rat; settings: 10 mg/kg IV; compared with saline treated control
human neutrophils = assay: Immunofluorescence binding to purified human neutrophils; format: cell-based; settings: 1 mM, 30 minutes
Procedure: To evaluate binding of PA-dPEG24 to neutrophils, purified human neutrophils were cytospun onto glass slides. PA-dPEG24 (1 mM) was then added to one set of slides for 30 minutes and the slides were subsequently washed with PBS. The cells were then incubated with an antibody to PA-dPEG24 (1:1,000 dilution of Chicken Anti-PIC1) followed by a labeled secondary antibody (1:2,000 dilution of Anti-Chicken, Alexa Fluor 488) and counterstained with DAPI. Cells were then visualized by microscopy. In each case, DAPI staining confirmed that the cells were present on the slides and intact.

ICAM-1/CD54 = ICAM-1/CD54 (Homo sapiens, UniProt P05362); assay: ELISA-type plate binding assay, ICAM-1
Sequence of ICAM-1/CD54 (P05362 28-532): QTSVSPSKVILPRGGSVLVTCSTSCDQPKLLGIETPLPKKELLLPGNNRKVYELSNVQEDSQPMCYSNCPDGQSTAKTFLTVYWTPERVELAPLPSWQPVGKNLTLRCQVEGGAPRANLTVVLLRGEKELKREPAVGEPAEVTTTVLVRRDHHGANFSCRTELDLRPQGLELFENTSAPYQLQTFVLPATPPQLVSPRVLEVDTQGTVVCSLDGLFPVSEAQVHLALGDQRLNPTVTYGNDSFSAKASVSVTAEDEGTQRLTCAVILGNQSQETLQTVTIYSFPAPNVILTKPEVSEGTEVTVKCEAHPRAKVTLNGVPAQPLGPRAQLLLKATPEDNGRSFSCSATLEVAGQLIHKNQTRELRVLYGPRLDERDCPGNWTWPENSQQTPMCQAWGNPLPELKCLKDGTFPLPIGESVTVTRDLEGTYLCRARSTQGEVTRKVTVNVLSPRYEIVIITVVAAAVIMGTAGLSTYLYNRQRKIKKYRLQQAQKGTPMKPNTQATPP
Procedure: To address this hypothesis, an ELISA-type binding assay was developed in which neutrophil ligands (LFA-1 and MAC-1/CR3) and […] cell ligands (ICAM-1/CD54 and ICAM-2/CD102) were bound to microtiter plates. Plates were then incubated with increasing amounts of PA-dPEG24 in 1% gelatin/PBS buffer probed with antibody to the peptide and developed.
To ascertain if PA-dPEG24 could bind ICAM-1 and LFA-1 in plasma, these receptors were coated onto microtiter plates and then incubated with human plasma containing increasing amounts of PA-dPEG24, probed with antibody to the peptide and then developed.

ICAM-5 = ICAM-5 (Homo sapiens, UniProt Q9UMF0); assay: ELISA-type plate binding assay, ICAM-5; settings: buffer
Sequence of ICAM-5 (Q9UMF0 32-924): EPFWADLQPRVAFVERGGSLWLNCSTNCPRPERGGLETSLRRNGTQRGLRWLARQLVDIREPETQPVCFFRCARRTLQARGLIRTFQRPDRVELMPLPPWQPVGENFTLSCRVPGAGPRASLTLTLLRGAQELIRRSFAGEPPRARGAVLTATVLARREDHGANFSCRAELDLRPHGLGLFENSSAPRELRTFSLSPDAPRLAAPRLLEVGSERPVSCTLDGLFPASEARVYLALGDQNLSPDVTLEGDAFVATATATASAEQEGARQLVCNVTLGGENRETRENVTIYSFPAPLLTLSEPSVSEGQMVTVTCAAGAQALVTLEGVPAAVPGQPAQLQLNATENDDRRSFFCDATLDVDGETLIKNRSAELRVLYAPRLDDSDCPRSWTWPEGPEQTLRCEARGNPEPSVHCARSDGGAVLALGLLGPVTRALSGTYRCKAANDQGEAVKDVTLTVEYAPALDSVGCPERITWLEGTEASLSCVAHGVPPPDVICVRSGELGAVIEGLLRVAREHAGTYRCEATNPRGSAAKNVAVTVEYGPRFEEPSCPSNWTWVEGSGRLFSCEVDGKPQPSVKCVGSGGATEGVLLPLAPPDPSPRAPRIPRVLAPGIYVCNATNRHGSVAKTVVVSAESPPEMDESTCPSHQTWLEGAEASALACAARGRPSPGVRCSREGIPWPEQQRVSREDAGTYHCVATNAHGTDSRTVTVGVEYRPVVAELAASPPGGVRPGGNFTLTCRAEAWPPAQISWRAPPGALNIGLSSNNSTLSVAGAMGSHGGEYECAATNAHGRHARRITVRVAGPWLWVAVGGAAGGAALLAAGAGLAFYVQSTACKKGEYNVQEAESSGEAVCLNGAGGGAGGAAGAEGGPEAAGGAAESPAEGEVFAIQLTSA

C1q = C1q (Homo sapiens, UniProt P02745+P02746+P02747); assay: ELISA-type plate binding assay, C1q (positive control ligand)
Sequence of C1q (P02745 23-245): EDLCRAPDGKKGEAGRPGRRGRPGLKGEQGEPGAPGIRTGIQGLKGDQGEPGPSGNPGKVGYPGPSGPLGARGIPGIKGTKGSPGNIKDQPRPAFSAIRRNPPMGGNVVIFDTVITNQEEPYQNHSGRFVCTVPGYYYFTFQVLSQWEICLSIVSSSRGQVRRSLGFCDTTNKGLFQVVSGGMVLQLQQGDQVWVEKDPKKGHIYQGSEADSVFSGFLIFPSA
Sequence of C1q (P02746 28-253): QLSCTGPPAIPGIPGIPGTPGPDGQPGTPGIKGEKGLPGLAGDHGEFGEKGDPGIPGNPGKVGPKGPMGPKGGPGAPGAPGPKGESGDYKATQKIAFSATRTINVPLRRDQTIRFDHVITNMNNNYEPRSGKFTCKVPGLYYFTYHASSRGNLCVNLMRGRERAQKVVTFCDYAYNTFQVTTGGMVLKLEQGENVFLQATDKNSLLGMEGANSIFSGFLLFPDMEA
Sequence of C1q (P02747 29-245): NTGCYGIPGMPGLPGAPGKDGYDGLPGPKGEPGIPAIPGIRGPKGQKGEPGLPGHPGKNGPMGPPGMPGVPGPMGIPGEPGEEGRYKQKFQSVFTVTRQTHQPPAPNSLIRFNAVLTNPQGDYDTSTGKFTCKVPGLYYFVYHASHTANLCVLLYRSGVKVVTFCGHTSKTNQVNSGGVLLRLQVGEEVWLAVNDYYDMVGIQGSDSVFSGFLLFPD

human monocytes = assay: C1q-immune complex binding to C1q receptors on human monocytes; format: cell-based; settings: increasing amounts of peptide
Source text: Human monocytes were purified and allowed to adhere to a microtiter plate. […] Absorbance was read at 450 nm. N=3. Bars indicate standard error of the mean (SEM).
Freshly purified human monocytes were allowed to adhere to a 96 well tissue culture plates and nonadherent lymphocytes were removed. […] Unbound immune complexes were washed off and an anti-rabbit HRP antibody was used to detect bound immune complexes, followed by development with TMB and quenching of the reaction with 1N H2SO4 and detection at 450 nm in a plate reader. […] Therefore, without wishing to be bound by theory, this increase has implications for diseases where immune complexes contribute to pathogenesis, including numerous inflammatory ophthalmologic diseases (e.g., uveitis or retinitis), which are situations were increased rapidity of immune complexes can potentially lessen disease severity.

[3] = system: human umbilical vascular endothelial cell (HUVEC); assay: HUVEC basement membrane matrix (Geltrex) culture, LPS-stimulated angiogenesis; format: cell-based; settings: no CellTrace dye, compared with 3-dimensional system
Procedure: FIG. 36. […] Cells were applied to a layer of basement membrane matrix containing LPS to stimulate angiogenesis and cultured for 18 hours at 37° C. Angiogenesis (nascent tube formation and sprouting) was observed by light microscopy.

[4] = bolus IV 400 mg/kg; four hours after infusion; male Wistar rats
[5] = IV 200 mg/ml (800 mg/kg)
MPO = assay: OVA/LPS rat asthma model, MPO in BALF (colorimetric); settings: vs Day 24 asthma animals
free DNA = assay: OVA/LPS rat asthma model, free DNA in BALF (PicoGreen); settings: prophylactic or rescue 160 mg/kg IV; vs asthma rats Days 22-24; not back to baseline
[6] = system: OVA/LPS rat model of neutrophilic asthma; assay: OVA/LPS rat model of neutrophilic asthma, leucocyte quantification in BALF; settings: Day 24
[7] = system: human umbilical vascular endothelial cell (HUVEC); assay: HUVEC 3-dimensional culture, LPS-stimulated non-VEGF mediated angiogenesis; settings: increasing amounts of peptide; 10 ug/ml LPS; 18 hours

CC[C@H](C)[C@H](N)C(=O)N[C@@H](C)C(=O)N[C@@H](CC(C)C)C(=O)N[C@H](C(=O)N[C@@H](CC(C)C)C(=O)N[C@@H](CCC(=O)O)C(=O)N1CCC[C@H]1C(=O)N[C@H](C(=O)N[C@@H](CS)C(=O)N[C@@H](CS)C(=O)N[C@@H](CCC(N)=O)C(=O)N[C@@H](CCC(=O)O)C(=O)N[C@@H](CCCNC(=N)N)C(=O)N[C@@H](C)C(=O)N[C@@H](C)C(=O)NCCOCCOCCOCCOCCOCCOCCOCCOCCOCCOCCOCCOCCOCCOCCOCCOCCOCCOCCOCCOCCOCCOCCOCCOCCC(=O)O)[C@@H](C)CC)[C@@H](C)CC [RLS-0071]
levels of anti-inflammatory Th2 cytokine IL-4 ([1]; 10 or 160 mg/kg before or 40 or 160 mg/kg after transfusion, FIG. 3): did not significantly decrease | other cytokine and growth factor levels (EGF, LIX, VEGF, Leptin, GRO, Fractalkine, GM-CSF, Eotaxin, G-CSF) ([1]; 10 or 160 mg/kg before or 40 or 160 mg/kg after transfusion, FIG. 4): either significant reduction or a trend toward reduced levels | cytokine levels IL-5, IL-18, IL-1alpha, IL-13, IL-17, IL-12, IP-10 ([1]; 10 or 160 mg/kg before or 40 or 160 mg/kg after transfusion, terminal blood plasma, FIG. 2): either significant pro-inflammatory cytokine reduction or a trend toward reduced levels | VEGF level in 2-hit rat acute lung injury model ([1]; FIG. 4): downregulate VEGF | pro-inflammatory cytokines (IL-1a, IL-1b, IL-6, IFN-g, IL-17, IL-18, TNFa, RANTES) and chemokines (MCP-1, MIP-1a, MIP-2) ([1]; prophylactic 10 or 160 mg/kg, rescue 40 or 160 mg/kg, terminal 4-hour time point, vs untreated 2-hit animals, some significant): reduced levels of cytokines and chemokines | cytokine levels IFNgamma, IL-6, IL-2, IL-10, TNFalpha, MCP-1, RANTES, MIP1alpha, IL-1beta, MIP-2 ([1]; single dose 10 or 160 mg/kg before or 40 or 160 mg/kg after transfusion, terminal blood plasma, FIG. 1): either significant pro-inflammatory cytokine reduction or a trend toward reduced levels | lung injury score (ratio of black to white pixels) (two-hit ALI model; 10 mg/kg prophylactic dose, p=0.002 vs untreated 2-hit animals): significant reduction in lung damage | lung injury score (ratio of black to white pixels) (two-hit ALI model; 40 mg/kg prophylactic dose, p<0.001 vs untreated 2-hit animals): this effect was enhanced | lung damage by H&E histology (two-hit ALI model; prophylactic 10, 40 or 160 mg/kg 2 minutes before incompatible erythrocyte transfusion, lungs 4 h after second hit): marked reduction in lung damage | lung tissue architecture by H&E histology (two-hit ALI model; rescue 40 mg/kg at 0.5, 60, 90, 120 and 180 min after second hit): lung tissue architecture resembling that of sham animals | lung injury score (ratio of black to white pixels) (two-hit ALI model; rescue 40 mg/kg at 0.5, 60, 90, 120 and 180 minutes after erythrocyte transfusion, all p<0.001): significant reduction in lung damage | inhibition of intravascular hemolysis (free hemoglobin in plasma) [2]: no inhibition of classical complement pathway mediated hemolysis | inhibition of mCH50 (mCH50): did not inhibit mCH50 | binding to neutrophil cell surface (immunofluorescence) (human neutrophils): fluorescence signal demonstrating direct binding of the peptide to the cell surface | binding to ICAM-1 (ICAM-1/CD54; 1% gelatin/PBS buffer): bound endothelial receptor ICAM-1 | binding to ICAM-1 (ICAM-1/CD54; in human plasma): bound dose-dependently | binding to ICAM-5 (ICAM-5): superior binding to ICAM-5 | binding to C1q (C1q; 1% gelatin/PBS buffer): bound PA-dPEG24 in a dose-dependent manner | binding to C1q (C1q; in human plasma): bound PA-dPEG24 in a dose-dependent manner | amount of C1q detected on monocytes (human monocytes): increased with increasing amounts of PA-dPEG24 | level of C1q-immune complexes bound to monocytes (human monocytes): did not reduce the level of C1q-immune complexes | angiogenesis (sprouting and tube formation) [3]: same results | staining for peptide in kidney tissue [4]: dark staining on the glomerulus and tubules | staining for peptide in liver tissue [4]: discrete staining | time RLS-0071 could be detected in vitreous post-IVT injection (IVT 160 mg/ml in 5 microliters): up to 10 days | half-life, IVT versus IV (IVT 160 mg/ml vs IV 200 mg/ml): much longer half-life in the eye than peptide delivered intravenously | RLS-0071 level in plasma after 24 hours [5]: undetectable | MPO levels in the BALF (MPO; prophylactic 160 mg/kg IV, p=0.12): reduction in MPO levels that did not reach statistical significance | MPO levels in the BALF (MPO; rescue 160 mg/kg IV, P=0.05): significant reduction in MPO levels | free DNA in the BALF (free DNA): a decrease in free DNA was observed | neutrophil accumulation in the BALF ([6]; prophylactic 160 mg/kg IV Days 21, 22, 23, P<0.03): significant reduction in neutrophil accumulation | neutrophils in the BALF ([6]; rescue 160 mg/kg IV Days 22 and 23, P<0.1844): reduction in neutrophils but did not reach statistical significance | angiogenesis (sprouting and tube formation) [7]: dose-dependent reduction in angiogenesis
